Literature values, collected in patent publication US20230346652A1, “Foaming Hand Sanitizer with High Alcohol Content” (Ele' Corporation, priority 2021, published 2023).

Legend:
[1] = tested on: enveloped viruses
[2] = tested on: certain non-enveloped viruses

CCO [ethanol]
ethanol concentration effective within 30 seconds [1]: less than 75 % (by weight)
ethanol concentration necessary to kill within 30 seconds [2]: up to 95%
